{"source": "patent US20120088827A1", "about": "(Profectus Biosciences, Inc., priority 2009, published 2012)", "key": {"IL-6": {"tested_on": "IL-6", "test": "Inhibition of IL-6 release in LPS-stimulated RAW 264.7 cells", "format": "cell-based", "conditions": "Mus musculus, RAW264.7; pretreated 2 hours, 1 μg/mL LPS 20-24 hours", "procedure": "RAW 264.7 cells were seeded at 4×10^4 cells per well in complete growth medium in 96 well white TC plates with clear bottoms one day prior to the assay. The next day the cells were washed once and 100 μL fresh growth media was added. Cells were pretreated with 0.5 μL from a 6 point 200× dilution series of the test compounds in DMSO for 2 hours. Following pretreatment with the drugs, the inflammatory response was induced by adding 5 μL of a 20 μg/mL solution of LPS (Sigma). The cells were incubated in the presence of the drugs and 1 μg/mL LPS for another 20-24 hours. Typically after treatment the total DMSO was […] of the culture volume and the final concentrations of the compounds were approximately: 40, 20, 10, 1, 0.2 and 0 μM depending on the MW of each compound. Modified dilution series were prepared as needed to get adequate dose response curves without changing the % DMSO. Samples were run in duplicate or triplicate and included DMSO treated control wells with and without LPS stimulation. Drugs with a known activity such as Parthenolide or DHMEQ were run as experimental controls. After 20-24 hours LPS activation, the media supernatant was collected from the cells and replaced with fresh media. The supernatant samples were cleared by centrifugation at 1,000×g for 5 minutes, transferred to fresh storage plates, and stored frozen at −30° C.\nAfter determining the appropriate supernatant dilutions experimentally, mIL-6 levels in the supernatants were quantified using Quantikine™ mouse IL-6 Immunoassay (R&D Systems) according to the manufacturer's protocol. Approximately 50 μL of the supernatants diluted in Calibrator Diluent were added to 50 μL of Assay Diluent in microplate wells pre-coated with an anti-mouse IL-6 capture antibody. Controls included a calibrated positive IL-6 control sample, non-specific binding (NSB) wells containing Calibrator Diluent but no IL-6, and a recombinant mouse IL-6 standard dilution series (10-1000 pg/mL). The plates were incubated at room temperature for 2 hours with shaking and then washed 5 times with 400 μL 1× Wash Buffer. Approximately 100 μL of an HRP-conjugated anti-mouse IL-6 antibody was added to each well to detect IL-6 captured on the plate. The plates were incubated at room temperature for 2 hours and then washed 5 times with 400 μl 1× Wash Buffer. Equal volumes of Color Reagents A and B were mixed and 100 μL of this HRP Substrate Solution was added to each well on the plate. The blue color was allowed to develop for 30 minutes and then the reaction was stopped using 100 μL of Stop Solution yielding a yellow color. Absorbance at 450 nm with a reference wavelength subtracted at 595 nm was recorded using a Becton-Dickinson DTX 880 Multimode Detector.\nThe concentration of mIL-6 in the unknown samples was determined from a curve-fit of the mIL-6 standard absorbance data and multiplying by the dilution factor. The maximum activity achieved in the absence of the inhibitor (DMSO+LPS treated wells) was arbitrarily given a value of 100%; likewise the minimum activity in the absence of the stimulant (no LPS) was assigned a value of 0% Inhibition of the amount of mIL-6 cytokine released in the drug treated wells was calculated relative to the maximum activation in the DMSO+LPS treated control wells (i.e., % inhibition=100−(drug+LPS treated)/(DMSO+LPS treated)). Dose response curves were used to determine the effective concentration to inhibit 50% of the mIL-6 cytokine released (IC50) by means of a SigmaPlot macro which fits a sigmoidal dose-response curve to the (log 10) μM concentration versus % inhibition. […] This technique yields an objective value for the IC50 provided that 50% inhibition was approached at the concentrations tested."}, "c-Rel": {"biological_target": "T1, c-Rel (Homo sapiens, UniProt Q04864)", "T1 sequence (Q04864 1-619)": "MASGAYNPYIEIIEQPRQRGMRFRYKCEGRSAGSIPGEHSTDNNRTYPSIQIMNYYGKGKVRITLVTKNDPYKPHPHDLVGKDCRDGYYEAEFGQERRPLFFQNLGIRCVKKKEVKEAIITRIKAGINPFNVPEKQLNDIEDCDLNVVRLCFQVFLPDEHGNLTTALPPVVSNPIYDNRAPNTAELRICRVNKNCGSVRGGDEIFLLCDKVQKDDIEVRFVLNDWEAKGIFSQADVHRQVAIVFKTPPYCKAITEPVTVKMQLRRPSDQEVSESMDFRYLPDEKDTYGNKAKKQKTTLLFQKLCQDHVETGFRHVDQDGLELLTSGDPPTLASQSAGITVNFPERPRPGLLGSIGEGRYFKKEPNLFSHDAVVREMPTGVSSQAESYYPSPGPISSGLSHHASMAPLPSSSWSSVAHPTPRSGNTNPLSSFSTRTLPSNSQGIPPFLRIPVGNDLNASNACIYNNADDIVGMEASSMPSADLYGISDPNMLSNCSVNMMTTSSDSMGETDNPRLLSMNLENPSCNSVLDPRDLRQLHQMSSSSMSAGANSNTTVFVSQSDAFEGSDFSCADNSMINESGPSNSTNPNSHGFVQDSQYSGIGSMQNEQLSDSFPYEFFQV", "test": "TransAM NF-κB Family DNA Binding ELISA, c-Rel", "procedure": "The binding activity of NF-κB heterodimer or homodimer subunits from activated nuclear extracts or purified recombinant NF-κB proteins exposed to the drug compounds was evaluated using the TransAM NF-κB Family binding ELISA (Active Motif). Approximately 3-5 μg of nuclear extracts from TNFα activated Hela or Raji cells (Active Motif) or 20 ng of purified recombinant proteins (p65 and p50 from Active Motif, p52 from Santa Cruz) were incubated for 1 hour at room temperature with 20 μL drug compounds diluted in Complete Lysis buffer without DTT. Treated samples were then transferred to 30 μL Complete Binding Buffer (with DTT) in microplate wells pre-coated with the NF-κB consensus oligonucleotide. […] The plate was incubated for 1 hour at room temperature with gentle shaking and then washed 3 times with 200 μL 1× Wash Buffer. NF-κB p65, p50, p52, RelB, or c-Rel subunits bound to the plate were detected with 100 μL of the primary antibody (diluted 1:1000 in 1× Antibody Buffer) specific for that subunit. The plate was incubated for 1 hour at room temperature and then washed 3 times with 200 μL 1× Wash Buffer. Next, 100 μL of a HRP conjugated goat anti-rabbit antibody (diluted 1:1,000 in 1× Antibody Buffer) was added to each well. The plate was incubated for 1 hour at room temperature and then washed 4 times with 200 μL 1× Wash Buffer. 100 μL of room temperature Developing Solution was added to each well. The reaction was allowed to develop for 2-10 minutes until a medium dark blue color developed (depending on the subunit activity in the lot of extract or lot of recombinant protein used) and then the reaction was stopped with 100 μL Stop Solution yielding a yellow color. Absorbance was recorded using a Becton-Dickinson DTX 880 Multimode Detector at 450 nm with a reference wavelength subtracted at 620 nm."}}, "note": "pEC50: −log10 of the molar value."}
{"smiles": "CC(C)CC(=O)Oc1ccccc1C(=O)NC1=CC(=O)C2OC2C1O", "note": "(racemic) [Example 1, (±)-2-(2-hydroxy-5-oxo-7-oxabicyclo[4.1.0]hept-3-en-3-ylcarbamoyl)phenyl 3-methylbutanoate]", "values": [{"measurement": "pEC50", "setting": "IL-6", "result": 6.30}, {"measurement": "inhibition at 5 µM", "setting": "c-Rel", "result": 1, "unit": "%"}]}
{"smiles": "CC(C)OC(=O)Oc1ccccc1C(=O)NC1=CC(=O)C2OC2C1OC(=O)OC(C)C", "note": "(racemic) [Example 2, (±)-3-(2-isopropoxycarbonyloxy-benzoylamino)-5-oxo-7-oxa-bicyclo[4.1.0]hept-3-en-2-yl ester isopropyl ester]", "values": [{"measurement": "pEC50", "setting": "IL-6", "result": 5.89}, {"measurement": "inhibition at 5 µM", "setting": "c-Rel", "result": 0, "unit": "%"}]}
{"smiles": "O=C(CC1CCCCC1)Oc1ccccc1C(=O)NC1=CC(=O)C2OC2C1O", "note": "(racemic) [Example 3, (±)-2-(2-hydroxy-5-oxo-7-oxabicyclo[4.1.0]hept-3-en-3-ylcarbamoyl)phenyl 2-cyclohexylacetate]", "values": [{"measurement": "pEC50", "setting": "IL-6", "result": 6.14}, {"measurement": "inhibition at 5 µM", "setting": "c-Rel", "result": 3, "unit": "%"}]}
{"smiles": "CCCC(C)C(=O)Oc1ccccc1C(=O)NC1=CC(=O)C2OC2C1O", "note": "(racemic) [Example 4, (±)-2-(2-hydroxy-5-oxo-7-oxabicyclo[4.1.0]hept-3-en-3-ylcarbamoyl)phenyl 2-methylpentanoate]", "values": [{"measurement": "pEC50", "setting": "IL-6", "result": 6.35}, {"measurement": "inhibition at 5 µM", "setting": "c-Rel", "result": 9, "unit": "%"}]}
{"smiles": "CCCCC(CC)C(=O)Oc1ccccc1C(=O)NC1=CC(=O)C2OC2C1O", "note": "(racemic) [Example 5, (±)-2-(2-hydroxy-5-oxo-7-oxabicyclo[4.1.0]hept-3-en-3-ylcarbamoyl)phenyl 2-ethylhexanoate]", "values": [{"measurement": "pEC50", "setting": "IL-6", "result": 6.36}, {"measurement": "inhibition at 5 µM", "setting": "c-Rel", "result": 9, "unit": "%"}]}
{"smiles": "CC(C)(C)CC(=O)Oc1ccccc1C(=O)NC1=CC(=O)C2OC2C1O", "note": "(racemic) [Example 6, (±)-2-(2-hydroxy-5-oxo-7-oxabicyclo[4.1.0]hept-3-en-3-ylcarbamoyl)phenyl 3,3-dimethylbutanoate]", "values": [{"measurement": "pEC50", "setting": "IL-6", "result": 6.46}, {"measurement": "inhibition at 5 µM", "setting": "c-Rel", "result": 6, "unit": "%"}]}
{"smiles": "CC(C)OC(=O)Oc1ccccc1C(=O)NC1=CC(=O)C2OC2C1O", "note": "(racemic) [Example 7, (±)-2-(2-hydroxy-5-oxo-7-oxabicyclo[4.1.0]hept-3-en-3-ylcarbamoyl)phenyl isopropyl carbonate]", "values": [{"measurement": "pEC50", "setting": "IL-6", "result": 5.77}, {"measurement": "inhibition at 5 µM", "setting": "c-Rel", "result": 5, "unit": "%"}]}
{"smiles": "CC(C)OC(=O)OC1C(NC(=O)c2ccccc2O)=CC(=O)C2OC21", "note": "(racemic) [Example 8]", "values": [{"measurement": "pEC50", "setting": "IL-6", "result": 5.82}, {"measurement": "inhibition at 5 µM", "setting": "c-Rel", "result": 2, "unit": "%"}]}
